These results are taken from patent US12187728B2 (Raze Therapeutics, Inc., priority 2015, dated 2025).

The target in the assay is T1, Human MTHFD2 (Homo sapiens, UniProt P13995).
T1 construct: residues 36-350 in Uniport ID P13995; His6 (N); made in house; host or cells: E. coli
T1 sequence (P13995 36-350): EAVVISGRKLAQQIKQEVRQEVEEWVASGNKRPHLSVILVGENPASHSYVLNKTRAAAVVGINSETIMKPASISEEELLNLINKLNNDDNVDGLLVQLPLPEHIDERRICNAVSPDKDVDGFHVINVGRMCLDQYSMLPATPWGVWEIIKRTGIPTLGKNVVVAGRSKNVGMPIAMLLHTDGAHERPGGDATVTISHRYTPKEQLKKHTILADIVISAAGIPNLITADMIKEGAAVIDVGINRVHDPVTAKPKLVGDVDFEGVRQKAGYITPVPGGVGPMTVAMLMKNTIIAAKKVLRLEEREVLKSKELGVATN
The experiment in a line: MTHFD2 Activity Assay (dehydrogenase activity, diaphorase/resazurin coupled fluorescence). It counts as biochemical. The note with it: inhibitory activity (IC50 and/or binding constant); 0.2 nM MTHFD2, 11 concentrations. An outline of the steps:
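His6-tagged MTHFD2 (res. 36-350), E. coli-expressed, at 0.2 nM preincubated with compound 15 min in Hepes pH 8.0/MgCl2/KH2PO4 buffer; 70 μM CH2-THF, 1 mM NAD+ added with resazurin/diaphorase, 30 min, EDTA stop. Resorufin fluorescence (ex 525/em 598); IC50 from 11-point 4-parameter fit.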
Turning to `Cn1c(N[C@H]2CC[C@@H](O)C2)nc2c1c(=O)n(Cc1ccc3sccc3c1)c(=O)n2C` (racemic) [Example 74, (±)-1-(1-benzothiophen-5-ylmethyl)-8-{[(cis)-3-hydroxycyclopentyl]amino}-3,7-dimethyl-2,3,6,7-tetrahydro-1H-purine-2,6-dione or (±)-1-(1-benzothiophen-5-ylmethyl)-8-{[(trans)-3-hydroxycyclopentyl]amino}-3,7-dimethyl-2,3,6,7-tetrahydro-1H-purine-2,6-dione], the half-maximal inhibitory concentration (IC50) lay in the range of 0.01 to 1 µM.
As for `Cn1c(Nc2ccnc(C3CC(CO)C3)c2)nc2c1c(=O)n(Cc1ccc(Cl)c(Cl)c1)c(=O)n2C` (centres unmarked) [Example 320, 1-(3,4-dichlorobenzyl)-8-(2-(3-(hydroxymethyl)cyclobutyl)pyridin-4-ylamino)-3,7-dimethyl-1H-purine-2,6(3H,7H)-dione], the figure is 0.01 to 1 µM; as for `Cn1c(N2CCC(O)CC2)nc2c1c(=O)n(Cc1cc3cc(Cl)ccc3[nH]1)c(=O)n2C` [Example 198, 1-((5-chloro-1H-indol-2-yl)methyl)-8-(4-hydroxypiperidin-1-yl)-3,7-dimethyl-1H-purine-2,6(3H,7H)-dione], 0.01 to 1 µM; as for `Cn1c(NC[C@@H]2CCCO2)nc2c1c(=O)n(Cc1ccc(Cl)c(Cl)c1)c(=O)n2C` [Example 104, (S)-1-(3,4-dichlorobenzyl)-3,7-dimethyl-8-((tetrahydrofuran-2-yl)methylamino)-1H-purine-2,6(3H,7H)-dione], 1 to 5 µM.
Consider `Cn1c(C(N)CO)nc2c1c(=O)n(Cc1cc3c(Cl)cccc3[nH]1)c(=O)n2C` (centres unmarked) [Example 458, 8-(1-amino-2-hydroxy-ethyl)-1-[(4-chloro-1H-indol-2-yl)methyl]-3,7-dimethyl-purine-2,6-dione], for which the 50% inhibitory concentration (IC50) lay within 0.01 to 1 µM.
`Cn1c(CCO)nc2c1c(=O)n(Cc1cc3ccccc3[nH]1)c(=O)n2C` [Example 212, 1-((1H-indol-2-yl)methyl)-8-(2-hydroxyethyl)-3,7-dimethyl-1H-purine-2,6(3H,7H)-dione] showed an IC50 of 1 to 5 µM.
Under `Cn1c(N[C@@H]2CCC[C@H]2O)nc2c1c(=O)n(Cc1ccc(Cl)c(Cl)c1)c(=O)n2C` [Example 93, 1-[(3,4-dichlorophenyl)methyl]-8-{[(1R,2R)-2-hydroxycyclopentyl]amino}-3,7-dimethyl-2,3,6,7-tetrahydro-1H-purine-2,6-dione] stands 0.01 to 1 µM; under `Cn1c(Nc2ccncc2)nc2c1c(=O)n(Cc1ccc3c(Cl)cccc3c1)c(=O)n2C` [Example 402, 1-((5-chloronaphthalen-2-yl)methyl)-3,7-dimethyl-8-(pyridin-4-ylamino)-1H-purine-2,6(3H,7H)-dione], 0.01 to 1 µM.
`Cn1c(C2CNCCO2)nc2c1c(=O)n(Cc1cc3c(Cl)cccc3[nH]1)c(=O)n2C` (centres unmarked) [Example 453, 1-[(4-chloro-1H-indol-2-yl)methyl]-3,7-dimethyl-8-morpholin-2-yl-purine-2,6-dione] registered an IC50 of 0.01 to 1 µM.
Consider `C[C@@H](CCO)Nc1nc2c(c(=O)n(Cc3ccc4sccc4c3)c(=O)n2C)n1C` [Example 51, 1-(1-benzothiophen-5-ylmethyl)-8-{[(2S)-4-hydroxybutan-2-yl]amino}-3,7-dimethyl-2,3,6,7-tetrahydro-1H-purine-2,6-dione], for which the half-inhibitory concentration (IC50) was in the range of 0.01 to 1 µM.
In the case of `Cn1c(Nc2ccnc([C@@H]3C[C@H]3C(=O)O)c2)nc2c1c(=O)n(Cc1cc3c(Cl)cccc3[nH]1)c(=O)n2C` (single isomer, unassigned) [Example 322, (1R,2R)-2-(4-((1-((4-chloro-1H-indol-2-yl)methyl)-3,7-dimethyl-2,6-dioxo-2,3,6,7-tetrahydro-1H-purin-8-yl)amino)pyridin-2-yl)cyclopropanecarboxylic acid or (1S,2S)-2-(4-((1-((4-chloro-1H-indol-2-yl)methyl)-3,7-dimethyl-2,6-dioxo-2,3,6,7-tetrahydro-1H-purin-8-yl)amino)pyridin-2-yl)cyclopropanecarboxylic acid], the IC50 lay within 0.01 to 1 µM.
